This is an account of results in ChEMBL document CHEMBL5226337, “Pyrazolopyrimidines as anticancer agents: A review on structural and target-based approaches” (Eur J Med Chem, 2021).

One data set deals with Maver1. Briefly: cells. The settings on record: Homo sapiens, Maver1, 72 h.
Data set [1] deals with HCT-116. Briefly: Anticancer activity against human HCT-116 cells assessed as inhibition of cell proliferation measured after 48 hrs by MTT assay. In kind it is functional, cell-based. Conditions: HCT-116, 48 h.
For data set [2], the system named is MCF7. Briefly: Anticancer activity against human MCF7 cells assessed as inhibition of cell proliferation measured after 24 hrs by MTT assay. In kind it is functional, cell-based. Conditions: MCF7, 24 h. In general terms: Tetrazolium assays rely on reduction of a dye to a coloured formazan, in cell work by metabolically active cells.
For data set [3], the system named is HeLa. Briefly: Anticancer activity against human HeLa cells assessed as inhibition of cell proliferation measured after 24 hrs by MTT assay. In kind it is functional, cell-based.
Data set [4] deals with HepG2. The data set is described as follows: Anticancer activity against human HepG2 cells assessed as inhibition of cell proliferation measured after 16 hrs by MTT assay. The settings on record: HepG2, 16 h. In kind it is functional, cell-based.
Another data set concerns KB. Briefly: Anticancer activity against human KB cells assessed as inhibition of cell proliferation measured after 16 hrs by MTT assay. In kind it is functional, cell-based.
The next data set concerns HT-29. The data set is described as follows: Anticancer activity against human HT-29 cells assessed as inhibition of cell proliferation measured after 16 hrs by MTT assay. In kind it is functional, cell-based. The settings on record: HT-29, 16 h.
Data set [5] has as its system HepG2. Briefly: Anticancer activity against human HepG2 cells assessed as inhibition of cell proliferation by MTT assay. In kind it is functional, cell-based.
The nature of data set [6]: Selectivity index, ratio of IC50 for cytotoxicity against FHC cells to IC50 for antiproliferative activity against KM12 cells. In kind it is toxicity, cell-based. Conditions: human; read-out: Ratio IC50.
A further data set concerns KM12. Briefly: Anticancer activity against human KM12 cells assessed as inhibition of cell proliferation measured after 72 hrs by MTT assay. In kind it is functional, cell-based. Conditions: KM12, 72 h.
In a further data set the test system is Ramos. The data set is described as follows: Anticancer activity against human Ramos cells assessed as inhibition of cell proliferation preincubated for 1 hr followed by compound addition measured after 1 hrs by Cell Titer-Glo assay. In kind it is functional, cell-based. For orientation: In ATP-based viability assays light output follows the ATP content of the culture.

Data set [7] deals with Tyrosine-protein kinase BTK (Homo sapiens, UniProt Q06187). Briefly: Inhibition of human BTK using biotin as a substrate preincubated for 5 mins followed by substrate addition incubated for 30 mins in presence of ATP by fluorescence based assay.
The test system of a further data set is Raji. The data set is described as follows: Anticancer activity against human Raji cells assessed as inhibition of cell proliferation preincubated for 1 hr followed by compound addition measured after 1 hrs by Cell Titer-Glo assay. In kind it is functional, cell-based.
For data set [8], the system named is Panel NCI-60 (60 carcinoma cell lines). Briefly: Anticancer activity against human Panel NCI-60 (60 carcinoma cell lines) assessed as inhibition of cell proliferation. In kind it is functional.
The subject of data set [9] is HCT-116. The data set is described as follows: Anticancer activity against human HCT-116 cells assessed as inhibition of cell proliferation measured after 18 hrs by spectrophotometric analysis relative to control. In kind it is functional.
The subject of data set [10] is MCF7. Briefly: Anticancer activity against human MCF7 cells assessed as inhibition of cell proliferation measured after 18 hrs by spectrophotometric analysis relative to control. In kind it is functional.
Data set [11] addresses Tyrosine-protein kinase JAK2 (Homo sapiens, UniProt O60674). The data set is described as follows: Inhibition of human JAK2 using biotin as a substrate preincubated for 5 mins followed by substrate addition incubated for 30 mins in presence of ATP by fluorescence based assay.
Data set [12] relates to MCF7. The data set is described as follows: Anticancer activity against human MCF7 cells assessed as inhibition of cell proliferation measured after 24 hrs by MTT based microplate ELISA reader analysis. The settings on record: MCF7, 24 h. In kind it is functional.
The nature of data set [13]: Inhibition of KDM (unknown origin) incubated for 30 mins in presence of ATP by ELISA assay. Also on record: species or system Homo sapiens.
Another data set deals with Z-138. The data set is described as follows: Anticancer activity against human Z138 cells assessed as inhibition of cell proliferation measured after 72 hrs by Cell Titer-Glo Luminescent. In kind it is functional, cell-based. Conditions: Z-138, 72 h.
A further data set deals with JeKo-1. The data set is described as follows: Anticancer activity against human JeKo-1 cells assessed as inhibition of cell proliferation measured after 72 hrs by Cell Titer-Glo Luminescent. In kind it is functional, cell-based. The settings on record: JeKo-1, 72 h.
A short description of data set [14]: Anticancer activity against human MINO cells assessed as inhibition of cell proliferation measured after 72 hrs by Cell Titer-Glo Luminescent. In kind it is functional, cell-based.
The subject of data set [15] is MCF7. Briefly: Anticancer activity against human MCF7 cells assessed as inhibition of cell proliferation measured after 48 hrs by MTT assay. In kind it is functional, cell-based. Conditions: MCF7, 48 h.
The subject of data set [16] is HepG2. The data set is described as follows: Anticancer activity against human HepG2 cells assessed as inhibition of cell proliferation measured after 72 hrs by SRB calorimetric assay. In kind it is functional, cell-based. The settings on record: HepG2, 72 h. (The SRB assay estimates cell density from bound dye.)
Data set [17] relates to MCF7. The data set is described as follows: Cell cycle arrest in human MCF7 cells assessed as accumulation at G2/M phase measured after 48 hrs by […] propidium iodide staining based flow cytometry analysis. Conditions: MCF7, 48 h. In kind it is functional.
The target of data set [18] is Epidermal growth factor receptor (Homo sapiens, UniProt P00533). Briefly: Inhibition of EGFR (unknown origin) by EGFR Kinase Assay Kit method.
Data set [19] has as its target cGMP-specific 3',5'-cyclic phosphodiesterase (Homo sapiens, UniProt O76074). Briefly: Inhibition of PDE5 (unknown origin).
Data set [20] concerns HeLa. The data set is described as follows: Anticancer activity against human HeLa cells assessed as inhibition of cell proliferation measured after 24 hrs by MTT based microplate ELISA reader analysis. In kind it is functional.
The next data set deals with A549. The data set is described as follows: Anticancer activity against human A549 cells assessed as inhibition of cell proliferation measured after 48 hrs by MTT assay based microtiter plate analysis. In kind it is functional. Conditions: A549, 48 h.

Converted amounts (≈) assume the structure as drawn.

Sequence of Tyrosine-protein kinase JAK2 (O60674 whole entry): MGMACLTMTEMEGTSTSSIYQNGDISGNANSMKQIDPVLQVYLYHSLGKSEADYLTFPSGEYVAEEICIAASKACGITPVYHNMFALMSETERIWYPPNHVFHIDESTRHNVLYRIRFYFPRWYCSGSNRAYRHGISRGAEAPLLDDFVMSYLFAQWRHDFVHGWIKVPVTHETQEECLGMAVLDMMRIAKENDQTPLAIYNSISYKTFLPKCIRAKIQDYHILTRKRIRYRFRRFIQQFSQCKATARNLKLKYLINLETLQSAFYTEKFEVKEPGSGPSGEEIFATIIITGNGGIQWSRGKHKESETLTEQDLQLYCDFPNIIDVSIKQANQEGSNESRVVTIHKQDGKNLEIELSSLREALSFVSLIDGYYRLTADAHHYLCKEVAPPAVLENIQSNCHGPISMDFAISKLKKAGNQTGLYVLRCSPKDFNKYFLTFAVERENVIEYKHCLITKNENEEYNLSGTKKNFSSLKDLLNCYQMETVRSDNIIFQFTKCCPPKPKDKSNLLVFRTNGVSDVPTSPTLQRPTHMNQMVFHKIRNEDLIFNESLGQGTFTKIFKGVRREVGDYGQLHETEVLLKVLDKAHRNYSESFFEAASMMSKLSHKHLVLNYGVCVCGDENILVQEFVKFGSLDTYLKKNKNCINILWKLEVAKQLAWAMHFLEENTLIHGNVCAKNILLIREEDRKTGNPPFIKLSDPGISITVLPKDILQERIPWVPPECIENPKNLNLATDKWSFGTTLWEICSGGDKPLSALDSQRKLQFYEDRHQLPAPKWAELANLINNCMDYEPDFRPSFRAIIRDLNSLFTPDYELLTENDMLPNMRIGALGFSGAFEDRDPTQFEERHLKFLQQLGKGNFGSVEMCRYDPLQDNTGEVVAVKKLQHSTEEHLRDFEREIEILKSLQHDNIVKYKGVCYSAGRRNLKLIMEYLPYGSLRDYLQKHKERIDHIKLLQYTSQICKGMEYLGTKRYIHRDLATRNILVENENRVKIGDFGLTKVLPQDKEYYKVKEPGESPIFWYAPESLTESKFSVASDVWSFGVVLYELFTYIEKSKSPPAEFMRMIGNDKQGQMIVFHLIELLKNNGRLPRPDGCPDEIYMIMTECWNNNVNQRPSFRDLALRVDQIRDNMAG
Sequence of Tyrosine-protein kinase BTK (Q06187 whole entry): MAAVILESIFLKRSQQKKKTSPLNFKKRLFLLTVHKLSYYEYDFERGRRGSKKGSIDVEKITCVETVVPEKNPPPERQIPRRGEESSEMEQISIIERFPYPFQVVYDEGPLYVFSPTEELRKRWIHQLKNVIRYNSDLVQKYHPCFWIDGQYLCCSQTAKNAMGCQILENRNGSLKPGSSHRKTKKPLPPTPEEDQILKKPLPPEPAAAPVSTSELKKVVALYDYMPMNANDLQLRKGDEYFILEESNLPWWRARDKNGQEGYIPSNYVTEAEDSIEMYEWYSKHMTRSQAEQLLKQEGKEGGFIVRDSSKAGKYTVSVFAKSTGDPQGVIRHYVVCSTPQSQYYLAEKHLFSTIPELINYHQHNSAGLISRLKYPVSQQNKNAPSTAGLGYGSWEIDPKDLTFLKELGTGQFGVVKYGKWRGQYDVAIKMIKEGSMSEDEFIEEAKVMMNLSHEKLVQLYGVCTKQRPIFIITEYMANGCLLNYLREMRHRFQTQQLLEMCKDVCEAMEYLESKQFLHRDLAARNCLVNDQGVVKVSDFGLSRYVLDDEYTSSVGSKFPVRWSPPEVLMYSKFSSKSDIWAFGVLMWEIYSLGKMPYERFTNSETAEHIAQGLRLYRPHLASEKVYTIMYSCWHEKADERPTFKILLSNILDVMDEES
Sequence of Epidermal growth factor receptor (P00533 whole entry): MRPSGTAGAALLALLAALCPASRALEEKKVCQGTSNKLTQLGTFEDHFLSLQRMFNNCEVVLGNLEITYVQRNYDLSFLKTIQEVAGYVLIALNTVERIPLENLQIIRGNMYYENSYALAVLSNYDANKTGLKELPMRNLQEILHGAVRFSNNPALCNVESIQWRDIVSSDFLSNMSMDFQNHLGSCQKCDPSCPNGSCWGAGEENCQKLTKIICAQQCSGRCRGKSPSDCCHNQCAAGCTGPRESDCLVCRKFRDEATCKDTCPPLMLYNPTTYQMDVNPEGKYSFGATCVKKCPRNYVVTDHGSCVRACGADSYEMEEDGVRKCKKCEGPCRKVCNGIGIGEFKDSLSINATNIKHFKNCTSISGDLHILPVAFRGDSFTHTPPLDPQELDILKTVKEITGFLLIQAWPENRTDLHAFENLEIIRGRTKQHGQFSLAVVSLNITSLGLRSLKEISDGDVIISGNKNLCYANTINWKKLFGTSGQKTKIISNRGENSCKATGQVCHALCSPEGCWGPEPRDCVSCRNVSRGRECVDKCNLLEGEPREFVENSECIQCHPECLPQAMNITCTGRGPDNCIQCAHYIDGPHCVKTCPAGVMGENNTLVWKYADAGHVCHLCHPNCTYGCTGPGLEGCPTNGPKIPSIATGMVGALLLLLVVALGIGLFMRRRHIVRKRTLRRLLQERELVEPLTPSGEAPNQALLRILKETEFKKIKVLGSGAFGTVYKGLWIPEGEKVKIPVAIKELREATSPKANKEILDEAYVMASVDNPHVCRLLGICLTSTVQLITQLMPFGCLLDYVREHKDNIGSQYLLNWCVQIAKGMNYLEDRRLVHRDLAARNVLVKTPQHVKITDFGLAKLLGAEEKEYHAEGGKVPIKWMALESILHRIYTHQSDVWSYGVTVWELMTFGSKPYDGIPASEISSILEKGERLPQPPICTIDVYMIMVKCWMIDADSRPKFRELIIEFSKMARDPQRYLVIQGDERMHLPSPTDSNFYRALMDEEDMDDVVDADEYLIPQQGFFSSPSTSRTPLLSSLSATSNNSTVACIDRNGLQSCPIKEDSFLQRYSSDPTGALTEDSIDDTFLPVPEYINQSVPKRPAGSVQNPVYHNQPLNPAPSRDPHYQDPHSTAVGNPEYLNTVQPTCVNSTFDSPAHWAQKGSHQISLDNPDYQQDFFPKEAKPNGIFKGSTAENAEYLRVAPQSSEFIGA
Description for Maver1: Anticancer activity against human MAVER-1 cells assessed as inhibition of cell proliferation measured after 72 hrs by Cell Titer-Glo Luminescent

As usually defined, the IC50 is the concentration at which inhibition is half-maximal. With `Nc1ncnc2c1c(-c1ccc(Oc3ccccc3)nc1)nn2C1CCCN(C(=O)CCl)C1` (centres undefined), in the data set on Maver1, the IC50 is under 1 µM.
Consider `CCNc1nn2c(-c3ccccc3)cc(=O)[nH]c2c1C(=O)Nc1ccc([N+](=O)[O-])cc1`, for which the IC50 with HCT-116 [1] worked out at 1.51 µM.
For the compound `Nc1nc(Cl)c2cnn(Cc3ccc(Br)cc3F)c2n1`, the IC50 in the data set with MCF7 [2] was 13.9 µM; in the data set with HeLa [3], 22.4 µM.
In the case of `CCOC(=O)C1=C(C)n2nc(CC#N)c(C#N)c2NC1c1ccccc1` (centres undefined), the results for the IC50 in the data set with HepG2 [4], in the data set on KB and in the data set with HT-29 were 4.41 µM, 7.58 µM and 8.12 µM, respectively.
Consider `CCOC(=O)C1=C(C)n2nc(CC#N)c(C#N)c2NC1c1ccc(N(C)C)cc1` (centres undefined), for which the half-maximal inhibitory concentration (IC50) worked out at 9.41 µM with HepG2 [4], 8.31 µM in the data set with KB and 9.23 µM in the data set with HT-29.
For the compound `CSc1c(C#N)c(N)nc2c(/N=N/N3C(=O)c4ccccc4C3=O)c(O)nn12`, the figures for the IC50 in the data set on MCF7 [2], in the data set with HeLa [3] and in the data set on HepG2 [5] were 4.17 µM, 5.57 µM and 5.6 µg/mL (≈ 14.2 µM), respectively.
As to `CCOC(=O)C1=C(C)n2nc(CC#N)c(C#N)c2NC1c1cc(Br)ccc1O` (centres undefined), the half-inhibitory concentration (IC50) with HepG2 [4] was found to be 9.64 µM; with KB, 6.94 µM; with HT-29 it was 5.62 µM.
Turning to `CSc1nc(-c2ccco2)c2c(N)n[nH]c2n1`, the selectivity ratio in data set [6] worked out at 18.8. For the same compound, the 50% inhibitory concentration (IC50) in the data set on KM12 amounted to 1.73 µM.
As to `C=CC(=O)N1CCCC(N2NC(c3cc(C(C)(C)O)n(C)n3)c3c(N)ncnc32)C1` (centres undefined), the IC50 with Ramos is 8.91 µM; in data set [7], 0.00795 µM; in the data set with Raji, 1.8 µM.
One may read the GI50 as the concentration that inhibits growth by half. On to `Nc1ncnc2c1c(Cc1c[nH]c3ccccc13)nn2CC1CCNCC1`, for which, in data set [8], the GI50 was determined as 0.019 µM.
As to `Cc1nn(-c2ccccc2)c2nc(C)n(Cc3cn(-c4ccc(Cl)cc4)nn3)c(=O)c12`, the “inhibition (INH)” value in the data set on HCT-116 [9] and in the data set on MCF7 [10] was 75.4% in each case.
As to `Cn1nc(C2NN(C3CCCN(C(=O)CC#N)C3)c3ncnc(N)c32)cc1C(C)(C)O` (centres undefined), the concentration for half-maximal inhibition (IC50) in data set [11] was determined as 0.008 µM.
Take `C=CC(=O)N1CCC(N2NC(c3cc(C(C)(C)O)n(C)n3)c3c(N)ncnc32)C1` (centres undefined): in data set [11], the IC50 stood at 0.0072 µM.
For `N#Cc1c(-c2ccccc2)nn2c(-c3cccc4ccccc34)ccnc12`, the IC50 with MCF7 [12] was 3 µM.
In the case of `Cc1cc(=O)n2nc(CC#N)c(C#N)c2[nH]1`, in [13], the half-maximal inhibitory concentration (IC50) is 4.05 µM.
Regarding `O=C(NCc1cc(C(F)(F)F)cc(C(F)(F)F)c1)NC1CCN(c2ncnc3[nH]ncc23)CC1`, the IC50 (in the data set on Z-138; with JeKo-1; in data set [14]) was under 1 µM throughout.
As to `CC1=CC(C)Nc2c(C(=O)Nc3c(C)cccc3C)c(Nc3ccccc3)nn21` (centres undefined), the IC50 in the data set with MCF7 [15] amounted to 7.68 µM.
`Cn1nc(C2NN(C3CCCN(C(=O)CC#N)C3)c3ncnc(N)c32)cc1C=O` (centres undefined): the IC50 in data set [11] worked out at 0.0097 µM.
As to `Cc1cc(=O)n2nc(/C(C#N)=C\c3ccco3)c(C#N)c2[nH]1`, the concentration for half-maximal inhibition (IC50) in [13] is 1.91 µM.
`CSc1nc(-c2cccs2)c2c(N)n[nH]c2n1`: in [6], the selectivity ratio is 35.5. For the same compound, in the data set with KM12, the IC50 stood at 1.21 µM.
Regarding `COc1ccc(C2c3c(-c4ccccc4)n[nH]c3Nc3[nH]c(=S)[nH]c(=S)c32)cc1` (centres undefined), in the data set with HepG2 [16], the IC50 was determined as 9.2 µM.
As to `COc1cc(/C=C(/C#N)c2nn3c(=O)cc(C)[nH]c3c2C#N)ccc1O`, the IC50 in the data set with MCF7 [17] is 1.91 µM; in data set [13], 2.31 µM.
On to `COc1nc2ccccc2cc1-c1nc2c(cnn2-c2ccc(Br)cc2)c(=O)[nH]1`, for which the IC50 came to 6.56 µM in the data set with MCF7 [2], 5.83 µM in [18], 8.72 µM with HeLa [3] and 1.57 µM in data set [19].
As to `COc1ccc(-c2c(C#N)cnc3c(C#N)c(-c4ccccc4)nn23)cc1`, the IC50 in the data set on HeLa [20] was determined as 7.8 µM.
With `COc1cccc2c1C(=O)c1c(O)c3c(c(O)c1C2=O)C[C@@](O)(C(=O)CO)C[C@@H]3O[C@H]1C[C@H](N)[C@H](O)[C@H](C)O1` [DOXORUBICIN], the IC50 in the data set with MCF7 [12] was determined as 5.9 µM; in the data set with HeLa [20] it was 8.1 µM.
As for `C#Cc1cccc(Nc2ncnc3cc(OCCOC)c(OCCOC)cc23)c1` [ERLOTINIB], the half-maximal inhibitory concentration (IC50) with A549 is 11.7 µM.
With `O=c1[nH]cc(F)c(=O)[nH]1` [FLUOROURACIL], the selectivity ratio in data set [6] stood at 1.93. In addition, in the data set on KM12, the IC50 was 12.3 µM.
